# Patent US4971965A, “Antibiotics TAN-1057” (Takeda Chemical Industries, Ltd., priority 1988, dated 1990)
# Where a name gives a salt, the structure may show the parent alone.
# What was measured:
# Acidity or basicity = type: physicochemical
# Solubility = type: physicochemical
# Bacillus cereus FDA 5 = type: cell-based; conditions: FDA5, agar dilution, DY medium, pH unadjusted, approx. 10^6 CFU/ml, read-out: Minimum Inhibitory Conc. (MIC)
# Experimental: (§1) (Note 1) Measurement was conducted by employing a medium consisting of DY
# (§2) medium [Bacto Antibiotic Medium 3 (Difco Laboratories, USA)(17.5 g), Bact
# (§3) yeast extract(Difco Laboratories, USA)(5.0 g) and distilled water(pH
# (§4) unadjusted)(1000 ml)], using approximately 10^6 colony forming unit/m
# (§5) of inoculum, by means of the agar dilution method.
# [1] = system: Streptococcus faecalis IFO 3989; type: cell-based; conditions: Enterococcus faecalis, IFO3989; agar dilution; DY medium, pH unadjusted; approx. 10^6 CFU/ml; read-out: Minimum Inhibitory Conc. (MIC)
# Experimental: as §1, §2, §3, §4, §5
# [2] = system: Micrococcus luteus IFO 12708; type: cell-based; conditions: IFO12708, agar dilution, DY medium, pH unadjusted, approx. 10^6 CFU/ml, read-out: Minimum Inhibitory Conc. (MIC)
# Experimental: as §1, §2, §3, §4, §5
# [3] = system: Proteus vulgaris IFO 3988; type: cell-based; conditions: IFO3988, agar dilution, DY medium, pH unadjusted, approx. 10^6 CFU/ml, read-out: Minimum Inhibitory Conc. (MIC)
# Experimental: as §1, §2, §3, §4, §5
# [4] = system: Klebsiella pnemoniae IFO 3317; type: cell-based; conditions: IFO3317, agar dilution, DY medium, pH unadjusted, approx. 10^6 CFU/ml, read-out: Minimum Inhibitory Conc. (MIC)
# Experimental: as §1, §2, §3, §4, §5
# Escherichia coli LD-2 = type: cell-based; conditions: LD2, agar dilution, DY medium, pH unadjusted, approx. 10^6 CFU/ml, read-out: Minimum Inhibitory Conc. (MIC)
# Experimental: as §1, §2, §3, §4, §5
# [5] = system: Pseudomonas aeruginosa IFO 3080; type: cell-based; conditions: IFO3080, agar dilution, DY medium, pH unadjusted, approx. 10^6 CFU/ml, read-out: Minimum Inhibitory Conc. (MIC)
# Experimental: as §1, §2, §3, §4, §5
# [6] = system: Escherichia coli NIHJ JC 2; type: cell-based; conditions: NIHJJC2, agar dilution, DY medium, pH unadjusted, approx. 10^6 CFU/ml, read-out: Minimum Inhibitory Conc. (MIC)
# Experimental: as §1, §2, §3, §4, §5
# [7] = system: Salmonella typhimurium IFO 12529; type: cell-based; conditions: Salmonella enterica; agar dilution; DY medium, pH unadjusted; approx. 10^6 CFU/ml; read-out: Minimum Inhibitory Conc. (MIC)
# Experimental: as §1, §2, §3, §4, §5
# [8] = system: Staphylococcus epidermidis IFO 3762; type: cell-based; conditions: IFO3762, agar dilution, DY medium, pH unadjusted, approx. 10^6 CFU/ml, read-out: Minimum Inhibitory Conc. (MIC)
# Experimental: as §1, §2, §3, §4, §5
# [9] = system: Bacillus megaterium IFO 12108; type: cell-based; conditions: Priestia megaterium, IFO12108; agar dilution; DY medium, pH unadjusted; approx. 10^6 CFU/ml; read-out: Minimum Inhibitory Conc. (MIC)
# Experimental: as §1, §2, §3, §4, §5
# [10] = system: Acinetobacter calcoaceticus IFO 12552; type: cell-based; conditions: IFO12552, agar dilution, DY medium, pH unadjusted, approx. 10^6 CFU/ml, read-out: Minimum Inhibitory Conc. (MIC)
# Experimental: as §1, §2, §3, §4, §5
# Aeromonas caviae NCW = type: cell-based; conditions: agar dilution, DY medium, pH unadjusted, approx. 10^6 CFU/ml, read-out: Minimum Inhibitory Conc. (MIC)
# Experimental: as §1, §2, §3, §4, §5
# [11] = system: Staphylococcus aureus FDA 209P; type: cell-based; conditions: FDA209P, agar dilution, DY medium, pH unadjusted, approx. 10^6 CFU/ml, read-out: Minimum Inhibitory Conc. (MIC)
# Experimental: as §1, §2, §3, §4, §5
# [12] = system: Bacillus subtilis NIHJ PCI 219; type: cell-based; conditions: agar dilution, DY medium, pH unadjusted, approx. 10^6 CFU/ml, read-out: Minimum Inhibitory Conc. (MIC)
# Experimental: as §1, §2, §3, §4, §5
# [13] = Conversion in aqueous solution; type: physicochemical; conditions: room temperature
# From the text: For example, in case that the mixture of TAN-1057A and B is isolated as crystals of the sulfate, the ratio of TAN-1057A and B is about 6 to 8:4 to 2.
# The term "Antibiotics TAN-1057" in the present specification includes also a mixture which contains TAN-1057A, B, C and D in an optional combination and an optional ratio thereof.
Acidity or basicity (Acidity or basicity),Solubility (Solubility; acetone),Solubility (Solubility; diethyl ether),Solubility (Solubility; dimethylsulfoxide),Solubility (Solubility; ethyl acetate),Solubility (Solubility; methanol),Solubility (Solubility; water),Structure (SMILES),further results
neutral,Sparingly soluble,Sparingly soluble,Soluble,Sparingly soluble,Soluble,Readily soluble,CN(C(=O)C[C@@H](N)CCCNC(=N)N)[C@@H]1CNC(NC(N)=O)=NC1=O [TAN-1057B dihydrochloride],
,,,,,,,CN(C(=O)C[C@@H](N)CCCNC(=N)N)[C@@H]1CNC(NC(N)=O)=NC1=O [TAN-1057B],MIC (Bacillus cereus FDA 5): 100 µg/mL; MIC [1]: 50 µg/mL; MIC [2]: 12.5 µg/mL; MIC [3]: > 100 µg/mL; MIC [4]: > 100 µg/mL; MIC (Escherichia coli LD-2): 25 µg/mL; MIC [5]: > 100 µg/mL; MIC [6]: > 100 µg/mL; MIC [7]: > 100 µg/mL; MIC [8]: 3.13 µg/mL; MIC [9]: 50 µg/mL; MIC [10]: 100 µg/mL; MIC (Aeromonas caviae NCW): 25 µg/mL; MIC [11]: 25 µg/mL; MIC [12]: 50 µg/mL; conversion of TAN-1057A and B into each other [13]: converted easily each other
neutral,Sparingly soluble,Sparingly soluble,Soluble,Sparingly soluble,Soluble,Readily soluble,CN1C(=O)C[C@H](CCCNC(=N)N)NC(=O)[C@H]1CNC(=N)NC(N)=O [TAN-1057C dihydrochloride],

Structure (SMILES),Acidity or basicity (Acidity or basicity),Solubility (Solubility; acetone),Solubility (Solubility; diethyl ether),Solubility (Solubility; dimethylsulfoxide),Solubility (Solubility; ethyl acetate),Solubility (Solubility; methanol),Solubility (Solubility; water),further results
CN(C(=O)C[C@@H](N)CCCNC(=N)N)[C@H]1CNC(NC(N)=O)=NC1=O [TAN-1057A trihydrochloride],neutral,Sparingly soluble,Sparingly soluble,Soluble,Sparingly soluble,Soluble,Readily soluble,
